Data: paper PMC4893628, “Chalcone-based Selective Inhibitors of a C4 Plant Key Enzyme as Novel Potential Herbicides” (Scientific Reports, 2016)
Where two headings read alike, the source gives them in different places.

Legend:
Format in all cases: cell-based
[1] = system: Corynebacterium glutamicum ATCC13032; experiment: Bacterial growth in microscale cultivation, C. glutamicum; details: for activity at 0.3 µM / activity at 3 µM / activity at 30 µM: Corynebacterium glutamicum; for Lag Phase: relative to control
Summary of the method: (§1)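 Inhibitors in DMSO were added to the medium, at a maximum of 400 μM for trans-chalcone and 100 μM for 2'-hydroxychalcone. Cultures were seeded at OD600 0.5, or 0.25 for B. subtilis, and growth was followed as 620 nm backscatter in a BioLector at 1200 rpm. Final backscatter, growth rate and lag phase were compared with DMSO controls.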

[2] = system: Pseudomonas putida KT2440; experiment: Bacterial growth in microscale cultivation, P. putida; details: for activity at 0.3 µM / activity at 3 µM / activity at 30 µM: Pseudomonas putida; for Lag Phase: relative to control
Summary of the method: as §1

Bacillus subtilis 168 = experiment: Bacterial growth in microscale cultivation, B. subtilis; details: for Lag Phase: relative to control
Summary of the method: as §1

[3] = system: Escherichia coli K-12 MG1655; experiment: Bacterial growth in microscale cultivation, E. coli; details: for activity at 0.3 µM / activity at 3 µM / activity at 30 µM: Escherichia coli; for Lag Phase: relative to control
Summary of the method: as §1

`O=C(/C=C/c1ccccc1)c1ccc(O)c(O)c1O` [Compound 10, 2′,3′,4′-Trihydroxychalcone] gave an activity at 0.3 µM ([1]; ATCC13032, read-out: Final Backscatter, complex medium, 0.3 µM, relative to control) of 105%, an activity at 3 µM ([1]; ATCC13032, read-out: Final Backscatter, complex medium, 3 µM, relative to control) of 109% and an activity at 30 µM ([1]; ATCC13032, read-out: Final Backscatter, complex medium, 30 µM, relative to control) of 110%. The activity at 0.3 µM ([1]; ATCC13032, read-out: Final Backscatter, minimal medium, 0.3 µM, relative to control) was 103%, the activity at 3 µM ([1]; ATCC13032, read-out: Final Backscatter, minimal medium, 3 µM, relative to control) was 104% and the activity at 30 µM ([1]; ATCC13032, read-out: Final Backscatter, minimal medium, 30 µM, relative to control) was 104%. The activity at 0.3 µM ([1]; ATCC13032, read-out: Growth rate, complex medium, 0.3 µM, relative to control) was 106%, the activity at 3 µM ([1]; ATCC13032, read-out: Growth rate, complex medium, 3 µM, relative to control) was 112% and the activity at 30 µM ([1]; ATCC13032, read-out: Growth rate, complex medium, 30 µM, relative to control) was 118%. The activity at 0.3 µM ([1]; ATCC13032, read-out: Growth rate, minimal medium, 0.3 µM, relative to control) was 104%, the activity at 3 µM ([1]; ATCC13032, read-out: Growth rate, minimal medium, 3 µM, relative to control) was 103% and the activity at 30 µM ([1]; ATCC13032, read-out: Growth rate, minimal medium, 30 µM, relative to control) was 99.3%. The “Lag Phase” value ([1]; complex medium, 0.3 µM) was 100,0%, the “Lag Phase” value ([1]; complex medium, 3 µM) was 97,8% and the “Lag Phase” value ([1]; complex medium, 30 µM) was 94,9%. For the same compound, the “Lag Phase” value ([1]; minimal medium, 0.3 µM) was 97,9%, the “Lag Phase” value ([1]; minimal medium, 3 µM) was 98,6% and the “Lag Phase” value ([1]; minimal medium, 30 µM) was 102,1%. The activity at 0.3 µM ([2]; KT2440, read-out: Final Backscatter, complex medium, 0.3 µM, relative to control) was 103%, the activity at 3 µM ([2]; KT2440, read-out: Final Backscatter, complex medium, 3 µM, relative to control) was 102% and the activity at 30 µM ([2]; KT2440, read-out: Final Backscatter, complex medium, 30 µM, relative to control) was 105%. For the same compound, the activity at 0.3 µM ([2]; KT2440, read-out: Final Backscatter, minimal medium, 0.3 µM, relative to control) was 101%, the activity at 3 µM ([2]; KT2440, read-out: Final Backscatter, minimal medium, 3 µM, relative to control) was 101% and the activity at 30 µM ([2]; KT2440, read-out: Final Backscatter, minimal medium, 30 µM, relative to control) was 103%. For the same compound, the activity at 0.3 µM ([2]; KT2440, read-out: Growth rate, complex medium, 0.3 µM, relative to control) was 114%, the activity at 3 µM ([2]; KT2440, read-out: Growth rate, complex medium, 3 µM, relative to control) was 103% and the activity at 30 µM ([2]; KT2440, read-out: Growth rate, complex medium, 30 µM, relative to control) was 105%. For the same compound, the activity at 0.3 µM ([2]; KT2440, read-out: Growth rate, minimal medium, 0.3 µM, relative to control) was 94.8%, the activity at 3 µM ([2]; KT2440, read-out: Growth rate, minimal medium, 3 µM, relative to control) was 96% and the activity at 30 µM ([2]; KT2440, read-out: Growth rate, minimal medium, 30 µM, relative to control) was 91.3%. The “Lag Phase” value ([2]; complex medium, 0.3 µM) was 103,9%, the “Lag Phase” value ([2]; complex medium, 3 µM) was 100,9% and the “Lag Phase” value ([2]; complex medium, 30 µM) was 107,3%. The “Lag Phase” value ([2]; minimal medium, 0.3 µM) was 100,0%, the “Lag Phase” value ([2]; minimal medium, 3 µM) was 101,5% and the “Lag Phase” value ([2]; minimal medium, 30 µM) was 99,2%. For the same compound, the activity at 0.3 µM (Bacillus subtilis 168; Bacillus subtilis, 168, read-out: Final Backscatter, complex medium, 0.3 µM, relative to control) was 102%, the activity at 3 µM (Bacillus subtilis 168; Bacillus subtilis, 168, read-out: Final Backscatter, complex medium, 3 µM, relative to control) was 101% and the activity at 30 µM (Bacillus subtilis 168; Bacillus subtilis, 168, read-out: Final Backscatter, complex medium, 30 µM, relative to control) was 103%. It also gave an activity at 0.3 µM (Bacillus subtilis 168; Bacillus subtilis, 168, read-out: Final Backscatter, minimal medium, 0.3 µM, relative to control) of 108%, an activity at 3 µM (Bacillus subtilis 168; Bacillus subtilis, 168, read-out: Final Backscatter, minimal medium, 3 µM, relative to control) of 110% and an activity at 30 µM (Bacillus subtilis 168; Bacillus subtilis, 168, read-out: Final Backscatter, minimal medium, 30 µM, relative to control) of 106%. For the same compound, the activity at 0.3 µM (Bacillus subtilis 168; Bacillus subtilis, 168, read-out: Growth rate, complex medium, 0.3 µM, relative to control) was 106%, the activity at 3 µM (Bacillus subtilis 168; Bacillus subtilis, 168, read-out: Growth rate, complex medium, 3 µM, relative to control) was 109% and the activity at 30 µM (Bacillus subtilis 168; Bacillus subtilis, 168, read-out: Growth rate, complex medium, 30 µM, relative to control) was 112%. The activity at 0.3 µM (Bacillus subtilis 168; Bacillus subtilis, 168, read-out: Growth rate, minimal medium, 0.3 µM, relative to control) was 88.5%, the activity at 3 µM (Bacillus subtilis 168; Bacillus subtilis, 168, read-out: Growth rate, minimal medium, 3 µM, relative to control) was 94.4% and the activity at 30 µM (Bacillus subtilis 168; Bacillus subtilis, 168, read-out: Growth rate, minimal medium, 30 µM, relative to control) was 90.6%. For the same compound, the “Lag Phase” value (Bacillus subtilis 168; complex medium, 0.3 µM) was 100,0%, the “Lag Phase” value (Bacillus subtilis 168; complex medium, 3 µM) was 104,2% and the “Lag Phase” value (Bacillus subtilis 168; complex medium, 30 µM) was 97,9%. The “Lag Phase” value (Bacillus subtilis 168; minimal medium, 0.3 µM) was 98,3%, the “Lag Phase” value (Bacillus subtilis 168; minimal medium, 3 µM) was 96,6% and the “Lag Phase” value (Bacillus subtilis 168; minimal medium, 30 µM) was 99,3%. The activity at 0.3 µM ([3]; MG1655, read-out: Final Backscatter, complex medium, 0.3 µM, relative to control) was 106%, the activity at 3 µM ([3]; MG1655, read-out: Final Backscatter, complex medium, 3 µM, relative to control) was 106% and the activity at 30 µM ([3]; MG1655, read-out: Final Backscatter, complex medium, 30 µM, relative to control) was 98.9%. The activity at 0.3 µM ([3]; MG1655, read-out: Final Backscatter, minimal medium, 0.3 µM, relative to control) was 105%, the activity at 3 µM ([3]; MG1655, read-out: Final Backscatter, minimal medium, 3 µM, relative to control) was 105% and the activity at 30 µM ([3]; MG1655, read-out: Final Backscatter, minimal medium, 30 µM, relative to control) was 109%. It also gave an activity at 0.3 µM ([3]; MG1655, read-out: Growth rate, complex medium, 0.3 µM, relative to control) of 109%, an activity at 3 µM ([3]; MG1655, read-out: Growth rate, complex medium, 3 µM, relative to control) of 99.8% and an activity at 30 µM ([3]; MG1655, read-out: Growth rate, complex medium, 30 µM, relative to control) of 104%. The activity at 0.3 µM ([3]; MG1655, read-out: Growth rate, minimal medium, 0.3 µM, relative to control) was 96.3%, the activity at 3 µM ([3]; MG1655, read-out: Growth rate, minimal medium, 3 µM, relative to control) was 92% and the activity at 30 µM ([3]; MG1655, read-out: Growth rate, minimal medium, 30 µM, relative to control) was 99.2%. For the same compound, the “Lag Phase” value ([3]; complex medium, 0.3 µM) was 92,1%, the “Lag Phase” value ([3]; complex medium, 3 µM) was 94,8% and the “Lag Phase” value ([3]; complex medium, 30 µM) was 118,4%. The “Lag Phase” value ([3]; minimal medium, 0.3 µM) was 92,1%, the “Lag Phase” value ([3]; minimal medium, 3 µM) was 90,6% and the “Lag Phase” value ([3]; minimal medium, 30 µM) was 92,1%.
